For one molecule, Activity results are on record in ChEMBL document CHEMBL1150975, “Biochemical and three-dimensional-structural study of the specific inhibition of protein kinase CK2 by [5-oxo-5,6-dihydroindolo-(1,2-a)quinazolin-7-yl]acetic acid (IQA)” (Biochem J, 2003).

In the assay the target is Proto-oncogene tyrosine-protein kinase Src (Homo sapiens) (UniProt P12931). Description: Percent residual c-Src activity in the presence of 10uM inhibitor.
Sequence of Proto-oncogene tyrosine-protein kinase Src (Homo sapiens) (P12931 2-536 limits assumed): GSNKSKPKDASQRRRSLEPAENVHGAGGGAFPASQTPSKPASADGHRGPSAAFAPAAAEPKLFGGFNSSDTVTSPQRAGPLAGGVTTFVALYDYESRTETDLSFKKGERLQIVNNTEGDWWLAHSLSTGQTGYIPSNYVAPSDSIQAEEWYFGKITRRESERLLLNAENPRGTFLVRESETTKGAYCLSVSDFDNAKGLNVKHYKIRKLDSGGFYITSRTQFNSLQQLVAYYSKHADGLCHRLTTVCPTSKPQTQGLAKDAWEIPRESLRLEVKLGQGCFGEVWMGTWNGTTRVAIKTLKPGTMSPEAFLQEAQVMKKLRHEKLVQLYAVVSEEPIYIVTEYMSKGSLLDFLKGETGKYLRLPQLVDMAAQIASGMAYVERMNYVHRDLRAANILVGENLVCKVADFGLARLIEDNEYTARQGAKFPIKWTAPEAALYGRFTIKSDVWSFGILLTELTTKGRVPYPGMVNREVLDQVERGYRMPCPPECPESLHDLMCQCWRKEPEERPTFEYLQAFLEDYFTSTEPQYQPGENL

For the molecule `O=C(O)Cc1c2ccccc2n2c1[nH]c(=O)c1ccccc12`, the Activity was determined as 80%.
